Literature values as cited in US4873075A, “Polyiodinated triglyceride analogs as radiologic agents” (The University of Michigan, priority 1985, dated 1989).

Test system: liver
Details: background statement

**Q.** With “tetraiodotetrachlorofluorescein [^131 I-Rose Bengal]” as the substance, how does the “hepatic to intestinal output” value read?
**A.** The value was “slow rate of hepatic to intestinal output”.
